According to US8435576B2, “Use of cocoa polyphenols for treating a prostate hyperplasia, a specific cocoa extract and applications” (Barry Callebaut AG, priority 2005, dated 2013):

What was measured:
[1] = system: coculture of 22Rv1 and RWEP-1 cells; experiment: Anti-galectin 8 immunolabeling of treated coculture; type: cell-based, human; settings: medium M3, 2.5×10^−4% and 1.2×10^−4%
Protocol: As a result, an anti-galectin 8 human monoclonal antibody (R&D Systems, Ref: MAB1305) was selected to specifically fluorescence-label the human prostate tumor cell line.
The healthy and tumoral cells were inoculated in coculture, at a rate of 30 000 cells per well for each cell line, in the selected medium for obtaining uniform and specific labeling of the tumoral cells.
After 24 hours in an incubator at 37° C. and 5% CO2 of saturated humidity, the coculture was incubated in the presence of β-sitosterol at two concentrations and of CPE also at two concentrations.
At the end of the incubation time with the products, the cell lawns were fixed in alcohol/acetic acid and then labeled with the anti-galectin 8 human monoclonal antibody for 1 hour. […] After intensive washing with PBS, the labeled cell lawns were observed using a Nikon DXM1200F camera driven by LUCIA 6.0 software. All the images were taken under the same conditions and with identical camera settings.
For the experiment, in order to improve the intensity of this immunolabeling and for better visual rendering quality, the concentration of the anti-galectin 8 primary antibody was increased from 1/50th to 1/20th. Furthermore, this primary antibody was incubated overnight at +4° C. for better fixing of the antibody and thus for better labeling intensity. […]

[2] = system: healthy human prostate epithelial cells (RWEP-1); experiment: Cell proliferation test, neutral red release method, media M1-M3; type: cell-based; settings: RWEP-1, media M1, M2 or M3, 24 hours
Protocol: (§1) • Healthy human prostate epithelial cells (RWEP-1, ATCC No. CRL-11609) • Human prostate carcinoma (22Rv1 ATCC No. CRL-2505) Culture: • 37° C., 5% CO2, 95% humidity
(§2) • Keratinocyte-serum free medium (KSFM) (Invitrogen, 17005-042) • Epidermal Growth Factor, 5 ng/ml (Invitrogen, 10450-013) • Bovine pituitary extract, 0.05 mg/ml (Invitrogen, 13028-014) • Penicillin 50 IU/ml-streptomycin 50 μg/ml 10 (v/v, Invitrogen 15070-063) Medium M2=Medium recommended for tumor cells (22Rv1): • RPMI 1640 medium (Invitrogen, 31870-025) • Decomplemented fetal calf serum, 10% (v/v Invitrogen 10270-098) • L-Glutamine, 1% (v/v Invitrogen 25030-024) • Penicillin 50 IU/ml-streptomycin 50 μg/ml 1 (v/v, • Invitrogen 15070-063) Medium M3=Mixed medium: • Whole keratinocyte-serum free medium, 50% (v/v) • Whole RPMI 1640 medium, 50% (v/v) […]
(§3) After 24 hours of growth, the healthy and tumoral cell lines were incubated in the presence of β-sitosterol (reference product) at 8 concentrations (see paragraph b) above) or of CPE at 8 concentrations (see paragraph b) above). […] The amount of stain incorporated into the cells is measured by spectro-photometric reading at 540 nm and is directly pro-portional to the number of live cells. The results were expressed as a percentage of inhibition relative to the untreated control.

[3] = system: human prostate carcinoma (22Rv1); experiment: as above; type: cell-based; settings: 22Rv1, media M1, M2 or M3, 24 hours
Protocol: as §1, §2, §3

CC[C@H](CC[C@@H](C)[C@H]1CC[C@H]2[C@@H]3CC=C4C[C@@H](O)CC[C@]4(C)[C@H]3CC[C@]12C)C(C)C [β-sitosterol]
Area of labeling (anti-galectin 8 and Hoechst) [1]: equivalent to that of the untreated proliferation control | Inhibition of proliferation [2]: weak inhibition of proliferation | Inhibition of proliferation [3]: weak inhibition of proliferation
